In patent US11548952B2, “Bispecific antibody against CD3 and CD20 in combination therapy for treating diffuse large B-cell lymphoma” (GENMAB A/S, priority 2020, dated 2023):
Read-outs that look alike come from different tables or passages of the source.

Key:
CD20 = target: T1, CD20 (Homo sapiens, UniProt P11836); conditions: bind to a different epitope; cited from earlier work
T1 sequence (P11836 1-297): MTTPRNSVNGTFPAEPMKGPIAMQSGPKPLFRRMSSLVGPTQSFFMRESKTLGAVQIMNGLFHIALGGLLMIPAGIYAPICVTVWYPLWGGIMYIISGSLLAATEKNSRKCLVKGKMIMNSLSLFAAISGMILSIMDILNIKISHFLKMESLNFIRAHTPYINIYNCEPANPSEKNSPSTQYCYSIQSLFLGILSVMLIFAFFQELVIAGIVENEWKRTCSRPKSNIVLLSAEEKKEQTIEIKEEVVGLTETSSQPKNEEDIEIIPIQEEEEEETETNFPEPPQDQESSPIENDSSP

[1] = system: CD20-expressing Raji-luc tumor cells; conditions: NOD-SCID mice injected with Raji-luc tumor cells and PBMCs; even in the presence of an excess of IgG1-RTX-FEAR; cited from earlier work
[2] = system: R/R DLBCL eligible for ASCT; assay type: in vivo, human; conditions: in combination with R-DHAX/C, preliminary
Experimental: The trial is conducted in 2 parts: dose escalation (Part 1) and expansion (Part 2). Subjects participate in only one part. Both parts consist of a screening period, a treatment period, a safety follow-up period, and a survival follow-up period.
Epcoritamab is initially be administered in combination with R-DHAX/C in a 3-subject cohort. DLTs are evaluated during the first 28 days.
Dexamethasone (40 mg) is administered intravenously or orally on days 1-4 of a cycle once every 3 weeks (Q3W) for cycles 1-3. Cytarabine (2 g/m^2) is administered intravenously on day 1 (usually over 3 hours), repeated after 12 hours (may result in a second dose on day 2 depending on timing of first dose), once every 3 weeks (Q3W) for cycles 1-3. […] Carboplatin (for DHAC) (AUC=5 mg/ml/min; Calvert's formula) is administered intravenously on day 1 once every 3 weeks (Q3W) for cycles 1-3.
CRS is graded according to the ASTCT grading for CRS (Tables 6 and 7), and for treatment of CRS, subjects should receive supportive care. […]

Row | Substance | competition for CD20 binding (CD20) | tumor growth in the xenograft model [1] | responders observed ([2]; escalation phase, as of Sep. 8, 2021, 22 patients dosed in total) | responders observed ([2]; expansion phase 48 mg, as of Sep. 8, 2021, response data not completely entered)
1 | IgG1-CD20: anti-CD20 antibody of which the CD20 arm of epcoritamab is derived | compete for CD20 binding |  |  | 
2 | Epcoritamab: IgG1 bispecific CD3×CD20 antibody; heavy and light chain pairs SEQ ID NOs: 24 and 25, and 26 and 27; CAS 2134641-34-0 |  | effectively reduce tumor growth | 4 | 0
